This is an account of results in paper PMC4154712 (Journal of medicinal chemistry, 2014).

Bounds are passed on as bounds.

Data set [1] concerns A549 (human lung carcinoma) cells. The conditions noted are these: read-out: IC50 ± SD A549; MTT method; 48 h; ref 10b; cited from earlier work. A general note: Tetrazolium dyes change colour on reduction, which living cells bring about.
The test system of data set [2] is HCT116 (human colon carcinoma cells). The conditions noted are these: read-out: IC50 ± SD HCT116; ref 10b; cited from earlier work.
In data set [3] the test system is HeLa cells. Kind of data set: Cell cycle analysis in HeLa cells. Type of data set: cell-based, human. The conditions noted are these: 24 h; for cell cycle arrest, in words: 20 nM; for cell cycle arrest (G2/M accumulation), in words: 100 nM.
In data set [4] the test system is tubulin. Kind of data set: Tubulin assembly. The note with it: for IC50: read-out: Tubulin Assembly IC50 ± SD, tubulin at 10 μM. Type of data set: biochemical.
For data set [5], the system named is MCF-7 human breast carcinoma cells. Kind of data set: cells. The note with it: MCF7, 96 h, read-out: MCF-7 IC50 ± SD.
For data set [6], the system named is PC-3 cells. Kind of data set: Cell cycle analysis in PC-3 cells. Format: cell-based, human. The conditions noted are these: PC-3, lowest concentration (500 nM), 24 h.
Data set [7] deals with RD cells. Kind of data set: Cell cycle analysis in RD cells. The note with it: lowest concentration (500 nM), 24 h. Format: cell-based.
Data set [8] concerns HepG2 cells. Kind of data set: Cell cycle analysis in HepG2 cells. Type of data set: cell-based, human. The note with it: HepG2, lowest concentration (500 nM), 24 h.
The nature of data set [9]: in vitro. The note with it: human, Caco-2.
The test system of data set [10] is human liver hepatocellular carcinoma cell line HepG2. Kind of data set: Growth inhibition of HepG2 cells. Type of data set: cell-based. The conditions noted are these: HepG2, 48 h, read-out: IC50 ± SD HepG2.
Data set [11] concerns HeLa (human cervical carcinoma) cells. The note with it: read-out: IC50 ± SD HeLA; MTT method; 48 h; ref 10b; cited from earlier work.
Data set [12] has as its system HT29 (human colon adenocarcinoma) cells. The note with it: read-out: IC50 ± SD HT-29; MTT method; 48 h; ref 10b; cited from earlier work.

Broadly, the IC50 is the concentration that gives 50% inhibition. Usually Papp stands for a coefficient for how fast a substance crosses the barrier. The efflux ratio is the permeability from basolateral to apical divided by that in the opposite direction, in the common usage.

Regarding `COc1ccc(/C=C\c2cc(OC)c(OC)c(OC)c2)cc1O` [Compound 2, combretastatin A-4], the IC50 in data set [1] was more than 10000 nM; in data set [2] it was 5 ± 0.4 nM. Consider `COc1cc(C(=O)c2ccn(-c3ccccc3)c2)cc(OC)c1OC` [Compound 4, (1-Phenyl-1H-pyrrol-3-yl)-(3,4,5-trimethoxyphenyl)methanone], for which, in data set [3], the “cell cycle arrest, in words” value is given as “only a minimal effect” and the “cell cycle arrest (G2/M accumulation), in words” value was “effectively arrested cell cycle progression”. As for `COc1cc(C(=O)c2cc[nH]c2)cc(OC)c1OC` [Compound 9, (1H-Pyrrol-3-yl)(3,4,5-trimethoxyphenyl)methanone], the “effect on tubulin polymerization (in words)” value in data set [4] is listed as “did not inhibit tubulin assembly”. On the same count and under the same terms, under `COc1cc(C(=O)c2ccn(C)c2)cc(OC)c1OC` [Compound 10, (1-Methyl-1H-pyrrol-3-yl)(3,4,5-trimethoxyphenyl)methanone] stands “did not inhibit tubulin assembly”. As for `O=C(c1ccccc1)c1ccn(-c2ccccc2)c1` [Compound 11, Phenyl(1-phenyl-1H-pyrrol-3-yl)methanone], in [4], the “effect on tubulin polymerization (in words)” value was “did not inhibit tubulin assembly” and the IC50 is more than 20000 nM. With `COc1cc(C(=O)c2ccn(-c3ccccc3F)c2)cc(OC)c1OC` [Compound 15, (1-(2-Fluorophenyl)-1H-pyrrol-3-yl)(3,4,5-trimethoxyphenyl)-methanone], the IC50 in [4] was not above 1000 nM. On the same count and under the same terms, under `COc1cc(C(=O)c2ccn(-c3ccccc3[N+](=O)[O-])c2)cc(OC)c1OC` [Compound 18, (1-(2-Nitrophenyl)-1H-pyrrol-3-yl)(3,4,5-trimethoxyphenyl)-methanone] stands more than 20000 nM. With `COc1cc(C(=O)c2ccn(-c3cccc([N+](=O)[O-])c3)c2)cc(OC)c1OC` [Compound 19, (1-(3-Nitrophenyl)-1H-pyrrol-3-yl)(3,4,5-trimethoxyphenyl)-methanone], in [5], the IC50 was determined as 230 ± 60 nM. For `COc1cc(C(=O)c2ccn(-c3ccc([N+](=O)[O-])cc3)c2)cc(OC)c1OC` [Compound 20, (1-(4-Nitrophenyl)-1H-pyrrol-3-yl)(3,4,5-trimethoxyphenyl)-methanone], the IC50 in data set [4] was more than 20000 nM. In the case of `COc1cc(C(=O)c2ccn(-c3cccc(N)c3)c2)cc(OC)c1OC` [Compound 22, (1-(3-Aminophenyl)-1H-pyrrol-3-yl)(3,4,5-trimethoxyphenyl)-methanone], the “cell cycle arrest, in words” value in data set [3] is “as effective as VBL and 2”; in [6], “effectively arrested cell cycle progression”; in [7], “effectively arrested cell cycle progression”; in data set [8], “effectively arrested cell cycle progression”. Besides, the “cell cycle arrest (G2/M accumulation), in words” value in [3] was “effectively arrested cell cycle progression”. For the same molecule, the Papp in [9] was more than 5 ×10⁻⁶ cm/s. The efflux ratio in [9] is less than 2. For the molecule `CNc1cccc(-n2ccc(C(=O)c3cc(OC)c(OC)c(OC)c3)c2)c1` [Compound 24, (1-(3-(Methylamino)phenyl)-1H-pyrrol-3-yl)(3,4,5-trimethoxyphenyl)methanone], in [4], the IC50 is not above 1000 nM. Regarding `COc1cc(C(=O)c2ccn(-c3cccc(NC(=N)N)c3)c2)cc(OC)c1OC.Cl` [Compound 27, 1-(3-(3-(3,4,5-Trimethoxybenzoyl)-1H-pyrrol-1-yl)phenyl)-guanidine Hydrochloride], the “cell cycle arrest, in words” value in [6], in data set [7] and in [8] was “effectively arrested cell cycle progression” throughout. For the molecule `COc1cc(C(=O)c2ccn(-c3cccc(NS(C)(=O)=O)c3)c2)cc(OC)c1OC` [Compound 28, N-(3-(3-(3,4,5-Trimethoxybenzoyl)-1H-pyrrol-1-yl)phenyl)-methanesulfonamide], in [4], the half-maximal inhibitory concentration (IC50) is not above 1000 nM. For the molecule `COc1cc(C(=O)c2ccn(-c3cccc(N4CCCCC4)c3)c2)cc(OC)c1OC` [Compound 31, (1-(3-(Piperidin-1-yl)phenyl)-1H-pyrrol-3-yl)(3,4,5-trimethoxyphenyl)methanone], in data set [4], the IC50 is more than 20000 nM. Turning to `COc1cc(C(=O)c2ccn(-c3cccc(C)c3)c2)cc(OC)c1OC` [Compound 33, (1-(3-Tolyl)-1H-pyrrol-3-yl)(3,4,5-trimethoxyphenyl)methanone], the IC50 in data set [4] was not above 1000 nM. Still for that read-out and setting: under `COc1cc(C(=O)c2ccn(-c3ccc(C)cc3)c2)cc(OC)c1OC` [Compound 34, (1-(4-Tolyl)-1H-pyrrol-3-yl)(3,4,5-trimethoxyphenyl)methanone] stands not above 1000 nM; under `COc1cc(C(=O)c2ccn(-c3ccc(OC(C)C)cc3)c2)cc(OC)c1OC` [Compound 40, (1-(4-Isopropoxyphenyl)-1H-pyrrol-3-yl)(3,4,5-trimethoxyphenyl)-methanone], more than 20000 nM; under `COc1cc(C(=O)c2ccn(-c3cccc(OCc4ccccc4)c3)c2)cc(OC)c1OC` [Compound 41, (1-(3-(Benzyloxy)phenyl)-1H-pyrrol-3-yl)(3,4,5-trimethoxyphenyl)methanone], more than 20000 nM. With `COc1ccc(-n2ccc(C(=O)c3cc(OC)c(OC)c(OC)c3)c2)cc1[N+](=O)[O-]` [Compound 45, (1-(4-Methox y-3-ni tro phenyl)-1H-pyrrol-3-yl)(3,4,5-trimethoxyphenyl)methanone], the IC50 in data set [4] came out at 15000 ± 70 nM.

On to `COc1cc(-n2ccc(C(=O)c3ccccc3)c2)cc(OC)c1OC` [Compound 50, Phenyl(1-(3,4,5-trimethoxyphenyl)-1H-pyrrol-3-yl)methanone], for which the IC50 in [4] is more than 20000 nM.

`COc1ccc(C(=O)c2ccn(-c3cc(OC)c(OC)c(OC)c3)c2)cc1OC(C)C` [Compound 53, (3-Isopropoxy-4-methoxyphenyl)(1-(3,4,5-trimethoxyphenyl)-1H-pyrrol-3-yl)methanone]: in data set [4], the IC50 is more than 20000 nM.

In the case of `CC(=O)O[C@H]1C(=O)[C@@]2(C)[C@H]([C@H](OC(=O)c3ccccc3)[C@]3(O)C[C@H](OC(=O)[C@H](O)[C@@H](NC(=O)c4ccccc4)c4ccccc4)C(C)=C1C3(C)C)[C@]1(OC(C)=O)CO[C@@H]1C[C@@H]2O` [PTX, paclitaxel], the figures for the half-maximal inhibitory concentration (IC50) in [10] and in data set [1] were 2037 ± 2 nM and 7 ± 2 nM, respectively.

With `CC[C@]1(O)C[C@@H]2CN(CCc3c([nH]c4ccccc34)[C@@](C(=O)OC)(c3cc4c(cc3OC)N(C)[C@H]3[C@@](O)(C(=O)OC)[C@H](OC(C)=O)[C@]5(CC)C=CCN6CC[C@]43[C@@H]65)C2)C1` [VBL, vinblastine], the results for the IC50 in [11], in data set [12] and in data set [1] were 10 ± 0.6 nM, 30 ± 0.8 nM and 20 ± 2 nM, respectively.

`CC[C@]1(O)C[C@H]2CN(CCc3c([nH]c4ccccc34)[C@@](C(=O)OC)(c3cc4c(cc3OC)N(C=O)[C@H]3[C@@](O)(C(=O)OC)[C@H](OC(C)=O)[C@]5(CC)C=CCN6CC[C@]43[C@@H]65)C2)C1` [VCR, vincristine]: the IC50 in data set [10] amounted to 177 ± 1.6 nM. In the case of “(3-Isopropoxy-4-methoxyphenyl)(1-(3,4,5-trimethoxyphenyl)-1H-pyrrol-3-yl)methanone [Compound 52]”, in data set [4], the IC50 was more than 20000 nM.
